Experiments:
[1] = target: T1, dTAG-HA SLC38A2 (Homo sapiens, UniProt Q96QD8+Q96SW2); experiment: Targeted degradation of dTAG-tagged SLC38A2 (western blot); type: cell-based; settings: HAP1, 0.5 µM; for time to degradation of the glycosylated form (upper band) of dTAG-HA SLC38A2: time course
T1 construct: expressed in transfected cells
Procedure: (§1) (A) HAP1 cells expressing dTAG-HA SLC38A9, 38A2, or 38A1 were treated with 0.5 µM dTAG13 for 16, 24 or 48 hours.
SLC1A5, SLC2A1, SLC2A3, SLC16A1, SLC38A1, SLC38A2 were obtained as gateway-compatible pENTR/pDONR vectors from the Harvard PlasmID Repository. SLC39A7 was obtained from Dharmacon, GE Healthcare. The following vectors were synthesized by Genescript: SLC4A4, SLC7A3, SLC38A9, SLC25A1, SLC9A1, SLC9A2, SLC9A3, SLC9A4, SLC9A5, SLC9A6, SLC9A7, SLC9A8, and SLC9B2. SLC30A9, SLC33A1, SLC35B2, SLC25A26, and MTCH2 were a gift from the RESOLUTE consortium. cDNAs were transferred into gateway-compatible lentiviral expression vectors: pLX305 dTAG vectors (Addgene #91797/8) or pRRL Strep-HA (described previously43, EF1a promotor driven expression) using LR recombination (ThermoFisher Scientific). For the generation of lentiviral stable overexpression cells, HEK293T cells were transfected with psPAX2 (Addgene #12260) and pMD2.G (Addgene #12259) and expression vectors using polyethylenimine (PEI). 12 hours post transfection medium was replaced with fresh medium. The medium, containing the virus, was harvested 48 hours later, filtered (0.45 µm), supplemented with 5 µg/ml Polybrene (Hexadimethrine bromide, Sigma) and added to target cells. […]
(§2) For immunoblotting, whole cell extracts were prepared using RIPA lysis buffer (25 mM Tris/HCl pH 7.6, 150 mM NaCl, 1% NP-40, 1% sodium deoxycholate, 0.1% SDS, EDTA-free protease inhibitor (Roche) and phosphatase inhibitors 2+3 (Sigma- Aldrich)). […] Protein extracts were quantified and normalized using the BCA assay (Thermo Scientific). […]
(§3) SLCs were ectopically expressed as fusions to a mutated FKBP domain, also known as the dTAG system. […] Each of the tested SLCs was stably expressed in HAP1 cells, and subcellular localization was assessed by immunofluorescence microscopy (FIG. 1B). […]

[2] = target: T2, dTAG-HA SLC38A9 (Homo sapiens, UniProt Q8NBW4+Q96SW2); experiment: Targeted degradation of dTAG-tagged SLC38A9 (western blot); type: cell-based
T2 construct: expressed in transfected cells
Procedure: as §1
SLC1A5, SLC2A1, SLC2A3, SLC16A1, SLC38A1, SLC38A2 were obtained as gateway-compatible pENTR/pDONR vectors from the Harvard PlasmID Repository. SLC39A7 was obtained from Dharmacon, GE Healthcare. The following vectors were synthesized by Genescript: SLC4A4, SLC7A3, SLC38A9, SLC25A1, SLC9A1, SLC9A2, SLC9A3, SLC9A4, SLC9A5, SLC9A6, SLC9A7, SLC9A8, and SLC9B2. SLC30A9, SLC33A1, SLC35B2, SLC25A26, and MTCH2 were a gift from the RESOLUTE consortium. cDNAs were transferred into gateway-compatible lentiviral expression vectors: pLX305 dTAG vectors (Addgene #91797/8) or pRRL Strep-HA (described previously43, EF1a promotor driven expression) using LR recombination (ThermoFisher Scientific). […]
as §2, §3

T1 sequence (Q96QD8 with tags, fused parts or gaps): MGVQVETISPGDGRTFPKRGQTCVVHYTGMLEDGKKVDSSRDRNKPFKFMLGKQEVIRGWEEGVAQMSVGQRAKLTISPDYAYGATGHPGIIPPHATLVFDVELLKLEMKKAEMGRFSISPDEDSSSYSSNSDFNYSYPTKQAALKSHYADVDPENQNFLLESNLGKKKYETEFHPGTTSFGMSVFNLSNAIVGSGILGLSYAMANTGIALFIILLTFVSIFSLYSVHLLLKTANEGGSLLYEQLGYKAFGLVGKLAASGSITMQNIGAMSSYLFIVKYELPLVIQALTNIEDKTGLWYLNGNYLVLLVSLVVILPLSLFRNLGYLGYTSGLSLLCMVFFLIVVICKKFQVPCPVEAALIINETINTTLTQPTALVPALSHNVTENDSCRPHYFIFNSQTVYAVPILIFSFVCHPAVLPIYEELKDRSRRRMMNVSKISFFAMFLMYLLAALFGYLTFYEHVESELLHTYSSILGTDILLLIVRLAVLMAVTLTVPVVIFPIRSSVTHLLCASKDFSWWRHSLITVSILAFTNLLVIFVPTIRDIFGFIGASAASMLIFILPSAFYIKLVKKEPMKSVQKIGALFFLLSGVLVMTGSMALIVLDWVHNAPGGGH
T1 sequence (Q96SW2 whole entry): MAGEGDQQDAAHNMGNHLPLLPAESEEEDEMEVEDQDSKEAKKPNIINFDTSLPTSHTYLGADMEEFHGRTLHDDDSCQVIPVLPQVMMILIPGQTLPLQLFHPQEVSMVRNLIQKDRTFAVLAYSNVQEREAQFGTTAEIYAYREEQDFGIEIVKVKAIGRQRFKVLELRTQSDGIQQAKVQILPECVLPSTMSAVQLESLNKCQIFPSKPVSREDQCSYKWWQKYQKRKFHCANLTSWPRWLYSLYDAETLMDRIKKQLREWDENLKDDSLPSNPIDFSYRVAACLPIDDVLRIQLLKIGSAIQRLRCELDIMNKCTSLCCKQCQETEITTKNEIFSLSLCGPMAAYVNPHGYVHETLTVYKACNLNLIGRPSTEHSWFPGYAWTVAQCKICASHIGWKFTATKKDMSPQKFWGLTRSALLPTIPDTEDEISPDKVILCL
T1 sequence (Q16531 whole entry partner): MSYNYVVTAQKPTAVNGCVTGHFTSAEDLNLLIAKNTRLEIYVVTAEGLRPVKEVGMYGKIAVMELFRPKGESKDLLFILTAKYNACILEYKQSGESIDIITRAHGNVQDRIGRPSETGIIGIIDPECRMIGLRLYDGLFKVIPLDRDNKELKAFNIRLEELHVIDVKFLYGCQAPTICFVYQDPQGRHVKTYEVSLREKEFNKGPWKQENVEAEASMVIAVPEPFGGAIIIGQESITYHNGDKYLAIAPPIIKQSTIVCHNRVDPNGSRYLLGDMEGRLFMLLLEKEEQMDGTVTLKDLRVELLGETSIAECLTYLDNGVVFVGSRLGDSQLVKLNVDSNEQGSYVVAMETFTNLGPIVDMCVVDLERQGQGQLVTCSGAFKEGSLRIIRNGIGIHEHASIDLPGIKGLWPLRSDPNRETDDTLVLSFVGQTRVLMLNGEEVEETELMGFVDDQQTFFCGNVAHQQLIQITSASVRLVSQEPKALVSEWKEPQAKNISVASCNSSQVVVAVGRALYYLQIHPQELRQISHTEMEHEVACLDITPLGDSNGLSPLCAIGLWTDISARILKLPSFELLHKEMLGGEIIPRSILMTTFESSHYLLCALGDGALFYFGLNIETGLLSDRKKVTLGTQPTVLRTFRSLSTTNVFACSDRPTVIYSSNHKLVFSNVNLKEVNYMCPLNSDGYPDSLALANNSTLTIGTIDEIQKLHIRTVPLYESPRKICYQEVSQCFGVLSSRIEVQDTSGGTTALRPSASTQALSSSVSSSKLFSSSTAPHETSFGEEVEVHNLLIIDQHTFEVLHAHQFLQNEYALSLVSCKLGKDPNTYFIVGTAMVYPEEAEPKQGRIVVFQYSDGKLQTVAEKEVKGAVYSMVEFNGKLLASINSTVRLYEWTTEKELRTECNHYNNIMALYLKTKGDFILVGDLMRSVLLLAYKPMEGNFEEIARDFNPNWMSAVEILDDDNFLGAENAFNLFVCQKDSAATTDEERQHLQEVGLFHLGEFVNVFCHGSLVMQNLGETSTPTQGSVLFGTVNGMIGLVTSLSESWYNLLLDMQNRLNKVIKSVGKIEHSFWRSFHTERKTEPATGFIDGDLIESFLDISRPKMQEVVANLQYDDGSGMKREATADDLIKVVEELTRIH
T2 sequence (Q8NBW4 with tags, fused parts or gaps): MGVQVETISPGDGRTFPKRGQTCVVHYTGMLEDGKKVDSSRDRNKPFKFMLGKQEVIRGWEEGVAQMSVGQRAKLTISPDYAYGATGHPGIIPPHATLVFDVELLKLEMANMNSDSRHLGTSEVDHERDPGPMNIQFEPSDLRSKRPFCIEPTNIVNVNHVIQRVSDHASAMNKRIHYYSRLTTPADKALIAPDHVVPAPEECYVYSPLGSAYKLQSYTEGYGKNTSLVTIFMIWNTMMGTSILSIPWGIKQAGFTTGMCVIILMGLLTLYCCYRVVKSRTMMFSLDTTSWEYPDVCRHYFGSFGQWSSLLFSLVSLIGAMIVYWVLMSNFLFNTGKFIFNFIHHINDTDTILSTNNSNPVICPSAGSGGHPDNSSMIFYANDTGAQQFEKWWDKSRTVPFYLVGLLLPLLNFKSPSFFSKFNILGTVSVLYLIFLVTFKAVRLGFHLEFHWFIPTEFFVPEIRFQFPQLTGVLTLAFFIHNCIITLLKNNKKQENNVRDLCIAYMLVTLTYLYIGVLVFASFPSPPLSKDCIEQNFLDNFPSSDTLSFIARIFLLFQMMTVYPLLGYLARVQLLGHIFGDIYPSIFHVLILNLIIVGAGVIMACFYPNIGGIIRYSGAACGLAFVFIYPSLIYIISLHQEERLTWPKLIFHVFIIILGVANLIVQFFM
T2 sequence (Q96SW2 whole entry): as the sequence (Q96SW2 whole entry) above
T2 sequence (Q16531 whole entry partner): as the sequence (Q16531 whole entry partner) above

reversibility of degradation of the target SLC ([2]; HAP1, 0.5 µM, 24, 48 or 72 hours)	Structure (SMILES)	time to degradation of the glycosylated form (upper band) of dTAG-HA SLC38A2 [1]	degradation of the target SLC ([1]; dTAG-HA SLC38A2, 16, 24 or 48 hours)	degradation of the target SLC ([2]; HAP1, 0.5 µM, 16, 24 or 48 hours)
reversible degradation	CC[C@H](C(=O)N1CCCC[C@H]1C(=O)O[C@H](CCc1ccc(OC)c(OC)c1)c1ccccc1OCC(=O)NCCCOCCOCCOCCCNC(=O)COc1cccc2c1C(=O)N(C1CCC(=O)NC1=O)C2=O)c1cc(OC)c(OC)c(OC)c1 (some centres unmarked) [dTAG7]	within five hours	–	–
–	CC[C@H](C(=O)N1CCCC[C@H]1C(=O)O[C@H](CCc1ccc(OC)c(OC)c1)c1ccccc1OCC(=O)NCCCCCCOc1cccc2c1C(=O)N(C1CCC(=O)NC1=O)C2=O)c1cc(OC)c(OC)c(OC)c1 (some centres unmarked) [dTAG13]	within five hours	Near-complete degradation	Near-complete degradation

Source: US20230241226A1, “COMPOUNDS FOR TARGETED DEGRADATION OF CARRIER PROTEINS AND USES THEREOF” (CeMM - Forschungszentrum für Molekulare Medizin GmbH, priority 2019, published 2023)
